Like-named read-outs stand apart in the source and are kept apart here.
Experiments:
MCL1/Bim = MCL1/Bim (Homo sapiens (Human), UniProt Q07820); test: MCL1/Bim Binding AlphaLISA Assay; settings: recombinant human 6xHis-MCL1 (171-327), biotinylated Bim peptide (51-76)
Procedure, shortened: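 AlphaLISA with 0.0625 nM human 6×His-MCL1 (171-327) and 0.0625 nM biotinylated Bim (51-76) peptide in 20 mM Hepes pH 7.5, 150 mM NaCl, 0.002% Brij 35, 1 mM DTT, 0.01% BSA. Compound preincubated with MCL1 1 h, Bim added 2 h, then acceptor and donor beads 1 h each; % inhibition versus DMSO and no-protein/peptide controls.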

SKBR3 cells = test: SKBR3 Cell Viability Assay; assay type: cell-based; settings: CellTiter Glo, read-out: MCL1 CV SKBR3 EC50
Procedure, shortened: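 Viability was measured by CellTiter-Glo luminescence after 72 h at 37° C, 5% CO2. Each well held 6,000 SKBR3 cells in McCoy's 5A/10% FBS dispensed onto serially diluted compound. Percent inhibition is relative to DMSO and 10 μM puromycin controls.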

[1] = Homo sapiens, SK-BR-3, 72 hours

Chain of MCL1/Bim (Q07820 171-327): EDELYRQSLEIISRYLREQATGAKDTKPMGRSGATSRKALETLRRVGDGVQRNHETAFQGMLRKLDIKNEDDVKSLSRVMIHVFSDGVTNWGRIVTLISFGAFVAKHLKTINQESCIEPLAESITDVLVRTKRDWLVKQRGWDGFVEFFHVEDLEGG

Compound	IC50 (MCL1/Bim)	EC50 (SKBR3 cells; [1])	EC50 (SKBR3 cells; 72 hours)
CO[C@H]1/C=C/C[C@H](C)C[S@@](=O)(NC(=O)c2cc3n(c2)CCOC3)=NC(=O)c2ccc3c(c2)N(C[C@@H]2CC[C@H]21)C[C@]1(CO3)SCCc2cc(Cl)ccc21 [Example 179]	0.07 nM	24.1 nM	
CO[C@H]1/C=C/C[C@H](C)[C@@H](C)[S@@](=O)(NC(=O)c2cnn(C)c2)=NC(=O)c2ccc3c(c2)N(C[C@@H]2CC[C@H]21)C[C@]1(CO3)SCCc2cc(Cl)ccc21 [Example 180]	0.06 nM	24.9 nM	
CO[C@H]1/C=C/C[C@H](C)[C@@H](C)[S@@](=O)(NC(=O)c2cc3n(c2)CCOC3)=NC(=O)c2ccc3c(c2)N(C[C@@H]2CC[C@H]21)C[C@]1(CO3)SCCc2cc(Cl)ccc21 [Example 181]	0.27 nM	57 nM	
CO[C@H]1/C=C/CCC[S@@](=O)(NC(=O)c2cc3n(c2)CCOC3)=NC(=O)c2ccc3c(c2)N(C[C@@H]2CC[C@H]21)C[C@]1(CO3)SCCc2cc(Cl)ccc21 [Example 184]	0.26 nM	262 nM	
CO[C@H]1/C=C/C[C@H](C)C[S@@](=O)(NC(=O)[C@H]2C[C@](C)(O)C2)=NC(=O)c2ccc3c(n2)N(C[C@@H]2CC[C@H]21)C[C@@]1(CCCc2cc(Cl)ccc21)CO3 [Example 189]	0.07 nM	71.8 nM	
CO[C@H]1/C=C/C[C@H](C)C[S@@](=O)(NC(=O)[C@H]2C[C@@](C)(O)C2)=NC(=O)c2ccc3c(n2)N(C[C@@H]2CC[C@H]21)C[C@@]1(CCCc2cc(Cl)ccc21)CO3 [Example 190]	0.15 nM	306 nM	
COc1nn(C)cc1C(=O)N[S@@]1(=O)=NC(=O)c2ccc3c(n2)N(C[C@@H]2CC[C@H]2[C@@H](OC)/C=C/C[C@H](C)C1)C[C@@]1(CCCc2cc(Cl)ccc21)CO3 [Example 191]	0.02 nM		36.6 nM
COc1nn(C)cc1C(=O)N[S@@]1(=O)=NC(=O)c2ccc3c(n2)N(C[C@@H]2CC[C@H]2[C@@H](OC)/C=C\C[C@H](C)C1)C[C@@]1(CCCc2cc(Cl)ccc21)CO3 [Example 192]	0.03 nM		136 nM
CO[C@H]1/C=C/C[C@H](C)[C@@H](C)[S@@](=O)(NC(=O)c2cnn(C3COC3)c2)=NC(=O)c2ccc3c(n2)N(C[C@@H]2CC[C@H]21)C[C@@]1(CCCc2cc(Cl)ccc21)CO3 [Example 201]	0.1 nM	85 nM	
CO[C@H]1/C=C/C[C@H](C)[C@@H](C)[S@@](=O)(NC(=O)c2cnn(C)c2)=NC(=O)c2ccc3c(n2)N(C[C@@H]2CC[C@H]21)C[C@]1(CO3)C[C@@H]2C[C@@H]2c2cc(Cl)ccc21 [Example 205]	0.06 nM	81.3 nM	
CO[C@H]1/C=C/C[C@H](C)[C@@H](C)[S@@](=O)(NC(=O)c2cc3n(c2)CCOC3)=NC(=O)c2ccc3c(n2)N(C[C@@H]2CC[C@H]21)C[C@]1(CO3)C[C@@H]2C[C@@H]2c2cc(Cl)ccc21 [Example 206]	0.23 nM	142 nM	
CO[C@H]1/C=C/C[C@H](C)C[S@@](=O)(NC(=O)c2cc(C(=O)N3CCOCC3)n(C)c2)=NC(=O)c2ccc3c(c2)N(C[C@@H]2CC[C@H]21)C[C@@]1(CCCc2cc(Cl)ccc21)CO3 [Example 207]	0.08 nM	87.7 nM	
CO[C@H]1/C=C/C[C@H](C)C[S@@](=O)(NC(=O)c2cn(C)c(=O)n2C)=NC(=O)c2ccc3c(c2)N(C[C@@H]2CC[C@H]21)C[C@@]1(CCCc2cc(Cl)ccc21)CO3 [Example 208]	0.13 nM	140 nM	
CO[C@H]1/C=C/C[C@H](C)C[S@@](=O)(NC(=O)c2cn(C)nc2C#CC(C)(C)O)=NC(=O)c2ccc3c(c2)N(C[C@@H]2CC[C@H]21)C[C@@]1(CCCc2cc(Cl)ccc21)CO3 [Example 209]	0.04 nM	127 nM	

Next, values leading:

IC50 (MCL1/Bim)	EC50 (SKBR3 cells; [1])	EC50 (SKBR3 cells; 72 hours)	Compound
0.24 nM	454 nM		CO[C@H]1/C=C/CCC[S@@](=O)(NC(=O)NC2CC2)=NC(=O)c2ccc3c(c2)N(C[C@@H]2CC[C@H]21)C[C@]1(CO3)SCCc2cc(Cl)ccc21 [Example 183]
0.04 nM	17.2 nM		CO[C@H]1/C=C/C[C@H](C)C[S@@](=O)(NC(=O)c2cnn(C)c2)=NC(=O)c2ccc3c(n2)N(C[C@@H]2CC[C@H]21)C[C@@]1(CCCc2cc(Cl)ccc21)CO3 [Example 185]
0.07 nM	26.6 nM		CO[C@H]1/C=C/C[C@H](C)C[S@@](=O)(NC(=O)c2cc3n(c2)CCOC3)=NC(=O)c2ccc3c(n2)N(C[C@@H]2CC[C@H]21)C[C@@]1(CCCc2cc(Cl)ccc21)CO3 [Example 186]
0.04 nM	47.8 nM		CO[C@H]1/C=C/C[C@H](C)C[S@@](=O)(NC(=O)NC2CC2)=NC(=O)c2ccc3c(n2)N(C[C@@H]2CC[C@H]21)C[C@@]1(CCCc2cc(Cl)ccc21)CO3 [Example 187]
0.05 nM	23.8 nM		COC1CC(C(=O)N[S@@]2(=O)=NC(=O)c3ccc4c(n3)N(C[C@@H]3CC[C@H]3[C@@H](OC)/C=C/C[C@H](C)C2)C[C@@]2(CCCc3cc(Cl)ccc32)CO4)C1 (stereo partly drawn) [Example 195]
0.35 nM		516 nM	COc1nn(C)cc1C(=O)N[S@@]1(=O)=NC(=O)c2ccc3c(n2)N(C[C@@H]2CC[C@H]2[C@@H](OC)/C=C/[C@@H](OC)[C@H](C)C1)C[C@@]1(CCCc2cc(Cl)ccc21)CO3 [Example 197]
0.05 nM		22.3 nM	COc1nn(C)cc1C(=O)N[S@@]1(=O)=NC(=O)c2ccc3c(n2)N(C[C@@H]2CC[C@H]2[C@@H](OC)/C=C/[C@H](OC)[C@H](C)C1)C[C@@]1(CCCc2cc(Cl)ccc21)CO3 [Example 198]
0.05 nM	21.1 nM		CO[C@H]1/C=C/C[C@H](C)[C@@H](C)[S@@](=O)(NC(=O)c2cnn(C)c2)=NC(=O)c2ccc3c(n2)N(C[C@@H]2CC[C@H]21)C[C@@]1(CCCc2cc(Cl)ccc21)CO3 [Example 200]
0.12 nM	156 nM		CO[C@H]1/C=C/C[C@H](C)[C@@H](C)[S@@](=O)(NC(=O)COC2CCOCC2)=NC(=O)c2ccc3c(n2)N(C[C@@H]2CC[C@H]21)C[C@@]1(CCCc2cc(Cl)ccc21)CO3 [Example 203]
0.05 nM	109 nM		COCC#Cc1nn(C)cc1C(=O)N[S@@]1(=O)=NC(=O)c2ccc3c(c2)N(C[C@@H]2CC[C@H]2[C@@H](OC)/C=C/C[C@H](C)C1)C[C@@]1(CCCc2cc(Cl)ccc21)CO3 [Example 210]
